In US9714247B2, “Multiple kinase pathway inhibitors” (Mannkind Corporation, priority 2012, dated 2017):
Like-named read-outs stand apart in the source and are kept apart here.

Columns and labels:
[1] = target: Src (Homo sapiens (Human), UniProt P12931); experiment: biochemical
[2] = system: Ramos; experiment: CellTiter-Glo proliferation/viability assay; assay type: cell-based, human; conditions: read-out: Ramos EC50
[3] = target: T1, Lyn (Homo sapiens (Human), UniProt P07948); experiment: biochemical
[4] = system: DoHH2; experiment: CellTiter-Glo proliferation/viability assay; assay type: cell-based, human; conditions: Homo sapiens, DOHH-2; 48 hrs; read-out: DoHH2 EC50
[5] = target: BTK (Homo sapiens (Human), UniProt Q06187)
[6] = target: T1, Lyn; conditions: read-out: Lyn IC50

T1 sequence (P07948 whole entry): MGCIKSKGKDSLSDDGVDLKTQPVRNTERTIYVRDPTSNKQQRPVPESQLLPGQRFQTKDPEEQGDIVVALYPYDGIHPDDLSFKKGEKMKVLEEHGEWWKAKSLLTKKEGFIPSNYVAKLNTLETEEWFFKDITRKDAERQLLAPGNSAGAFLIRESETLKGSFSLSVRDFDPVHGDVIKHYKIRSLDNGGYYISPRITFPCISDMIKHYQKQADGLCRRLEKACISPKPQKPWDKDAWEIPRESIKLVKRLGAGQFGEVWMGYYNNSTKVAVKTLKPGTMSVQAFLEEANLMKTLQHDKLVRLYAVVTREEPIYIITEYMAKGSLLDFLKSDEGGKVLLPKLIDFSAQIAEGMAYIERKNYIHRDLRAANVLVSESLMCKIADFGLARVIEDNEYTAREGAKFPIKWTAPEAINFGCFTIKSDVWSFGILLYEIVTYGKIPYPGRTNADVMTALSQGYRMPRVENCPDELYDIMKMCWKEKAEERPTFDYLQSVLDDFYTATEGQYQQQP
BTK, sequence (Q06187 whole entry): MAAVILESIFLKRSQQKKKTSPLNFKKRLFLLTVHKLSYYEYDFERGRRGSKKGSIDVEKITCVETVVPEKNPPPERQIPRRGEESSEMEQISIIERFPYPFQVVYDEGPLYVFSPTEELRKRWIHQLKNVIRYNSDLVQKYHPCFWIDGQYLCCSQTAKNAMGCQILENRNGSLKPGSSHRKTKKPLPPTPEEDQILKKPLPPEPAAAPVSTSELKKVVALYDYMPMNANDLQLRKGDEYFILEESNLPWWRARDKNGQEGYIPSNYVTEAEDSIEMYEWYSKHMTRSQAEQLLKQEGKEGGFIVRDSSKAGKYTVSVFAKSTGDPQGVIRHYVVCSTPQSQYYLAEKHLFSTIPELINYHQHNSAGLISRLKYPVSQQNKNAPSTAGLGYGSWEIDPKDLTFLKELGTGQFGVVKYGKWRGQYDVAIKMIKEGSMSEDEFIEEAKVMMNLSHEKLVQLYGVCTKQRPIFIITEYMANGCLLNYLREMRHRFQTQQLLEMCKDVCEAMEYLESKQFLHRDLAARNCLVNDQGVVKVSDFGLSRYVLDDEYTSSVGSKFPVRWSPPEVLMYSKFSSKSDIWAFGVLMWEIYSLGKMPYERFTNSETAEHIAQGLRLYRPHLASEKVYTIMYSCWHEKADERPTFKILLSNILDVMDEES
Src, sequence (P12931 whole entry, looked up): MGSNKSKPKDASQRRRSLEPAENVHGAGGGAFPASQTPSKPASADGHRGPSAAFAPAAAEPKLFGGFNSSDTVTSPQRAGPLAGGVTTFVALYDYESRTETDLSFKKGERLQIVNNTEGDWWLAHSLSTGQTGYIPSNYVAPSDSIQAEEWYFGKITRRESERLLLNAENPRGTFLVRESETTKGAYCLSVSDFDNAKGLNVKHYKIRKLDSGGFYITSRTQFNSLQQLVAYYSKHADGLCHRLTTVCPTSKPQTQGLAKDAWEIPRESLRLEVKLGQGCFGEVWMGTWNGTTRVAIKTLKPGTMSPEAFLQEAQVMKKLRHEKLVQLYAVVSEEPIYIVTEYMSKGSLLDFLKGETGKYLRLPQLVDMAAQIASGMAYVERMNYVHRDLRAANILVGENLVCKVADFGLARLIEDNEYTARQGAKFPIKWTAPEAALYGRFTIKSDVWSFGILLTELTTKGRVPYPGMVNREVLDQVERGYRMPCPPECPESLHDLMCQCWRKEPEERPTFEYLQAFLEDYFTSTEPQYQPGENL

SMILES | IC50 [1] | EC50 ([2]; Homo sapiens, Ramos, 48 h) | IC50 ([3]; Lyn IC50) | EC50 [4] | EC50 ([2]; 48 hrs) | IC50 [5] | IC50 [3] | EC50 ([2]; Homo sapiens, Ramos, 48 hrs) | IC50 ([5]; read-out: BTK IC50) | IC50 [6]
O=c1c(-c2c(F)cccc2F)cc2cnc(Nc3ccc(F)cn3)cc2n1C1CCOC1 (single isomer, unassigned) [Compound 141, (S or R)-3-(2,6-difluorophenyl)-7-((5-fluoropyridin-2-yl)amino)-1-(tetrahydrofuran-3-yl)-1,6-naphthyridin-2(1H)-one] | < 0.1 µM | 1 to 10 µM | 0.1 to 1 µM | < 1 µM |  |  |  |  |  | 
CCN(CC)CCOc1ccc(Nc2cc3c(cn2)cc(-c2c(F)cccc2F)c(=O)n3C2CCOC2)nc1 (single isomer, unassigned) [Compound 143, (S or R)-7-((5-(2-(diethylamino)ethoxy)pyridin-2-yl)amino)-3-(2,6-difluorophenyl)-1-(tetrahydrofuran-3-yl)-1,6-naphthyridin-2(1H)-one] | < 0.1 µM |  | < 0.1 µM | < 1 µM | > 10 µM | < 0.1 µM |  |  |  | 
CCN(CC)CCOc1ccc(Nc2cc3c(cn2)cc(-c2c(Cl)cccc2Cl)c(=O)n3C2CCOC2)nc1 (single isomer, unassigned) [Compound 145, (S or R)-3-(2,6-dichlorophenyl)-7-((5-(2-(diethylamino)ethoxy)pyridin-2-yl)amino)-1-(tetrahydrofuran-3-yl)-1,6-naphthyridin-2(1H)-one] | < 0.1 µM | 1 to 10 µM | < 0.1 µM | < 1 µM |  | < 0.1 µM |  |  |  | 
O=c1c(-c2c(Cl)cccc2Cl)cc2cnc(Nc3ccc(F)cn3)cc2n1C1CCOC1 (single isomer, unassigned) [Compound 147, (S or R)-3-(2,6-dichlorophenyl)-7-((5-fluoropyridin-2-yl)amino)-1-(tetrahydrofuran-3-yl)-1,6-naphthyridin-2(1H)-one] | < 0.1 µM | > 10 µM |  | < 1 µM |  | < 0.1 µM | < 0.1 µM |  |  | 
CCn1c(=O)c(-c2ccccc2)cc2cnc(Nc3cc(N4CCN(CCO)CC4)nc(C)n3)cc21 [Compound 5, 1-Ethyl-7-{6-[4-(2-hydroxy-ethyl)-piperazin-1-yl]-2-methyl-pyrimidin-4-ylamino}-3-phenyl-1H-[1,6]naphthyridin-2-one] | 1 to 5 µM | > 10 µM |  | 1 to 10 µM |  | 0.1 to 1 µM | 0.1 to 1 µM |  |  | 
CCn1c(=O)c(-c2ccccc2)cc2cnc(Nc3cnccn3)cc21 [Compound 6, 1-Ethyl-3-phenyl-7-(pyrazin-2-ylamino)-1H-[1,6]naphthyridin-2-one] | 1 to 5 µM |  |  | > 10 µM |  | 1 to 5 µM | 0.1 to 1 µM | > 10 µM |  | 
CCn1c(=O)c(-c2ccccc2)cc2cnc(Nc3ccccn3)cc21 [Compound 7, 1-Ethyl-3-phenyl-7-(pyridin-2-ylamino)-1H-[1,6]naphthyridin-2-one] | 0.1 to 1 µM | > 10 µM |  | 1 to 10 µM |  | 0.1 to 1 µM | 1 to 5 µM |  |  | 
CCN(CC)CCOc1ccc(Nc2cc3[nH]c(=O)c(-c4ccccc4)cc3cn2)nc1 [Compound 14, 7-[5-(2-Diethylamino-ethoxy)-pyridin-2-ylamino]-3-phenyl-1H-[1,6]naphthyridin-2-one] | 0.1 to 1 µM |  |  | 1 to 10 µM |  |  | 0.1 to 1 µM | > 10 µM | < 0.1 µM | 
CCn1c(=O)c(C2CC2)cc2cnc(Nc3ccc(C)cn3)cc21 [Compound 30, 3-Cyclopropyl-1-ethyl-7-(5-methyl-pyridin-2-ylamino)-1H-[1,6]naphthaayridin-2-one] | 0.1 to 1 µM | 1 to 10 µM |  | 1 to 10 µM |  |  | 1 to 5 µM |  | > 5 µM | 
CCn1c(=O)c(C(C)=O)cc2cnc(Nc3ccc(C)cn3)cc21 [Compound 33] | 1 to 5 µM |  |  | > 10 µM |  |  |  | > 10 µM | > 5 µM | > 5 µM
CCn1c(=O)c(C#CC(C)(C)C)cc2cnc(Nc3ccc(C)cn3)cc21 [Compound 39] | 0.1 to 1 µM | 1 to 10 µM |  | 1 to 10 µM |  |  |  |  | > 5 µM | > 5 µM
CCn1c(=O)c(-c2ccc(C)cc2)cc2cnc(Nc3ccc(C)cn3)cc21 [Compound 40, 1-ethyl-7-(5-methylpyridin-2-ylamino)-3-p-tolyl-1,6-naphthyridin-2(1H)-one] | 0.1 to 1 µM | > 10 µM |  | > 10 µM |  |  |  |  | > 5 µM | > 5 µM
CCn1c(=O)c(-c2ccccc2)cc2cnc(Nc3ccc(N4CCOCC4)cn3)cc21 [Compound 44, 1-Ethyl-7-(5-morpholin-4-yl-pyridin-2-ylamino)-3-phenyl-1H-[1,6]naphthyridin-2-one] | 0.1 to 1 µM |  |  | < 1 µM |  |  | 0.1 to 1 µM | 1 to 10 µM | > 5 µM | 
CCn1c(=O)c(-c2ccccc2)cc2cnc(Nc3ccc(OCCN(C)C)cn3)cc21 [Compound 48, 7-[5-(2-Dimethylamino-ethoxy)-pyridin-2-ylamino]-1-ethyl-3-phenyl-1H-[1,6]naphthyridin-2-one] | 1 to 5 µM |  |  | 1 to 10 µM |  | 1 to 5 µM | 0.1 to 1 µM | > 10 µM |  | 
